Laboratory results reported in patent US10772917B2, “Pancreatic endocrine progenitor cell therapies for the treatment of obesity and type 2 diabetes (T2D)” (THE UNIVERSITY OF BRITISH COLUMBIA, priority 2015, dated 2020).

Experiments:
HFD-fed mice [1] = assay: Body weight, epididymal fat pad weight and leptin in 60% fat diet mice given antidiabetic drug with or without cell transplant (Example 6); assay type: in vivo, mouse (SCID-beige); conditions: for circulating leptin levels: 60% fat diet, drug combined with cell transplant vs respective sham controls on the same drug, 20 weeks post-transplant
Text: Male SCID-beige mice (C.B-Igh-1b/GbmsTac-Prkdcscid-LystbgN7, 8-10 weeks old; Taconic™) were maintained on a 12 hr light/dark cycle throughout the study. All experiments were approved by the UBC Animal Care Committee and carried out in accordance with the Canadian Council on Animal Care guidelines.
(§1) In the second cohort, mice were placed on either the 10% fat control diet (D12450K; n=8) for the duration of the study of 60% fat diet (D12492; n=64) for 6 weeks, followed by one of the following treatment regimens for the remainder of the study (n=16 per group): (1) 60% fat diet with no drug (D12492), (2) 60% fat diet containing rosiglitazone (18 mg/kg diet or ˜3 mg/kg BW per day; Cayman Chemical™; Research Diets™ custom diet formulation D08121002), (3) 60% fat diet containing sitagliptin (4 g/kg diet or ˜750 mg/kg BW per day; sitagliptin phosphate monohydrate, BioVision™; Research Diets™ custom diet formulation D08062502R), or (4) 60% fat diet (D12492) and metformin (1,1-dimethylbiguanide hydrochloride) in drinking water (1.25 mg/ml or ˜250 mg/kg BW per day).
The procedure used for transplantation of macro-encapsulated pancreatic progenitor cells was as follows. Similar transplantation of macro-encapsulated pancreatic endocrine precursor cells or insulin-producing cells was described in Rezania et al. 2014, Pagliucca et al. 2014 and Agulnick A. D. et al. 2015. All mice were anaesthetized with inhalable isoflurane and transplant recipients received ˜5×10^6 hESC-derived pancreatic progenitor cells subcutaneously (s.c.) within a 20 1 TheraCyte™ macroencapsulation device (TheraCyte Inc.™, Laguna Hills, Calif.) on the right flank, as previously described (Bruin et al., 2013). Sham mice received the same surgical procedure, but no macroencapsulation device was implanted. In the first cohort, mice were randomly assigned to receive either a cell transplant (Tx, n=7 per diet) or sham surgery (sham, n=4 per diet) after 7 weeks of LFD or HFD feeding. […]
All metabolic analyses were performed in conscious, restrained mice and blood samples were collected via the saphenous vein. BW and blood glucose levels were assessed regularly throughout each study following a 4-hr morning fast. […]
Glucose tolerance tests (GTTs) were performed following a 6-hour morning fast and administration of glucose by oral gavage or intraperitoneal (i.p.) injection (2 glucose/kg BW, 30% solution; Vétoquinol™, Lavaltrie, QC). Glucose-stimulated human C-peptide secretion from engrafted cells was assessed following an overnight fast and an i.p. injection of glucose (2 g/kg). […] Blood glucose levels were measured using a handheld glucometer (Lifescan™; Burnaby, Canada). […]

HFD-fed mice [2] = assay: Fasting blood glucose and oral glucose tolerance test in 60% fat diet mice given antidiabetic drug with or without cell transplant (Example 6); assay type: in vivo, mouse (SCID-beige); conditions: for glucose tolerance (oral glucose tolerance test): HFD-fed mice, cell therapy combined with the drug
Procedure: as §1
(§2) The procedure used for transplantation of macro-encapsulated pancreatic progenitor cells was as follows. Similar transplantation of macro-encapsulated pancreatic endocrine precursor cells or insulin-producing cells was described in Rezania et al. 2014, Pagliucca et al. 2014 and Agulnick A. D. et al. 2015. All mice were anaesthetized with inhalable isoflurane and transplant recipients received ˜5×10^6 hESC-derived pancreatic progenitor cells subcutaneously (s.c.) within a 20 1 TheraCyte™ macroencapsulation device (TheraCyte Inc.™, Laguna Hills, Calif.) on the right flank, as previously described (Bruin et al., 2013). Sham mice received the same surgical procedure, but no macroencapsulation device was implanted. In the first cohort, mice were randomly assigned to receive either a cell transplant (Tx, n=7 per diet) or sham surgery (sham, n=4 per diet) after 7 weeks of LFD or HFD feeding. In the second cohort, HFD-fed mice (+/−drug treatment) received either a transplant (n=8 per group) or sham surgery (n=8 per group) 1 week after administration of the antidiabetic drugs. LFD controls all received sham surgery.
All metabolic analyses were performed in conscious, restrained mice and blood samples were collected via the saphenous vein. BW and blood glucose levels were assessed regularly throughout each study following a 4-hr morning fast. For all other metabolic tests, blood was collected after fasting (time 0) and at the indicated time points following administration of various secretagogues.
(§3) Glucose tolerance tests (GTTs) were performed following a 6-hour morning fast and administration of glucose by oral gavage or intraperitoneal (i.p.) injection (2 glucose/kg BW, 30% solution; Vétoquinol™, Lavaltrie, QC). Glucose-stimulated human C-peptide secretion from engrafted cells was assessed following an overnight fast and an i.p. injection of glucose (2 g/kg). […] Blood glucose levels were measured using a handheld glucometer (Lifescan™; Burnaby, Canada). Mouse hormone and lipid profiles were assessed in plasma using the following kits: leptin (Mouse Leptin ELISA, Crystal ChemInc.™, Downers Grove, Ill.), insulin (Ultrasensitive Mouse Insulin ELISA, Alpco Diagnostics™, Salem, N.H.), C-peptide (Mouse C-peptide ELISA, Alpco Diagnostics™), triglycerides (Serum Triglyceride kit, Sigma-Aldrich™), free fatty acids (NEFA-HR(2) kit, Wako Chemical™, Richmond, Va.) and cholesterol (Cholesterol E™ kit, Wako Chemical™). Hormone secretion from engrafted hESC-derived cells was assessed by measuring plasma human C-peptide (C-peptide ELISA, 80-CPTHU-E01.1; Alpco Diagnostics™) and human insulin and glucagon levels (K15160C-2; Meso Scale Discovery™, Gaithersburg, Md.). […]

HFD-fed mice [3] = assay: Mouse and human C-peptide after intraperitoneal glucose challenge (Example 6); assay type: in vivo, mouse (SCID-beige); conditions: drug plus cell transplant vs respective sham controls; for reduction of fasting mouse C-peptide levels: 4 weeks post-transplant; for fasting mouse C-peptide levels: 16 weeks post-transplant
Text: as §2
as §3, with “g/kg). Insulin tolerance tests (ITTs) were performed following a 4-hour morning fast and administration of human synthetic insulin (0.7 IU/kg body weight; Novolin Ge™ Toronto, Novo Nordisk™, Mississaugua, Canada).” for “g/kg).”, “Md.). Hemoglobin A1c (HbA1c) levels were measured with a Siemens DCA 200 Vantage Analyzer™ (Siemens Healthcare Diagnostics™, Tarrytown, N.Y.) from whole blood collected from the saphenous vein with EDTA as an anticoagulant.” for “Md.).”

pancreatic regeneration = conditions: ductal ligation model; cited from earlier work
[4] = under the conditions tested; cited from earlier work
[5] = 12 weeks post-transplant, drug with the cell therapy

Molecule	circulating leptin levels (HFD-fed mice [1])	glucose tolerance (oral glucose tolerance test) (HFD-fed mice [2]; 12 weeks post-transplant)	reduction of fasting mouse C-peptide levels (HFD-fed mice [3])	fasting mouse C-peptide levels (HFD-fed mice [3])	short term effect [4]	further results
CN(C)C(=N)NC(=N)N.Cl [metformin, 1,1-dimethylbiguanide hydrochloride]	significantly reduced	significantly improved	not yet evident	significantly reduced		
CN(CCOc1ccc(CC2SC(=O)NC2=O)cc1)c1ccccn1 (stereo not shown) [rosiglitazone]	no effect					
N[C@@H](CC(=O)N1CCn2c(nnc2C(F)(F)F)C1)Cc1cc(F)c(F)cc1F [sitagliptin, sitagliptin phosphate monohydrate]	significantly reduced	significantly improved	not yet evident	significantly reduced		weight loss (HFD-fed mice [1]; cells transplanted in combination with the drug, compared with other groups): the most weight loss was observed; glycemic control during an oral glucose challenge compared with LFD controls (HFD-fed mice [2]; [5]): indistinguishable; peak glucose level at 15 minutes post-gavage compared with LFD controls (HFD-fed mice [2]; [5]): marginally higher; glucose tolerance (HFD-fed mice [2]; drug on its own, without cell transplant): mild reduction in glucose tolerance
C=CC[C@@H]1/C=C(\C)C[C@H](C)C[C@H](OC)[C@H]2O[C@@](O)(C(=O)C(=O)N3CCCC[C@H]3C(=O)O[C@H](/C(C)=C/[C@@H]3CC[C@@H](O)[C@H](OC)C3)[C@H](C)[C@@H](O)CC1=O)[C@H](C)C[C@@H]2OC [tacrolimus]						pancreatic regeneration (pancreatic regeneration): block pancreatic regeneration
exendin-4: anti-diabetic medicine examined earlier for short term effect (Bruin et al. 2013)					without significant effect	
insulin: anti-diabetic medicine examined earlier for short term effect (Bruin et al. 2013)					without significant effect	
